Test [1] concerns the target T1, GST-tagged KRAS-G12D (2-169) (Homo sapiens, UniProt P01116, G12D).
T1 construct: GST-tagged KRAS-G12D (2-169, Reaction Biology, MSC-11-539); purchased Reaction Biology MSC-11-539 (KRAS G12D); MSC-11-502 (SOS1cat)
Put plainly: Nucleotide exchange assay (NEA), SOS-mediated, HTRF, KRAS G12D. The class given is biochemical. The settings on record: Table 4; IC50 extracted at 30 min. The text has this:
This activity is tightly regulated by GTPase activating proteins (GAPs) and guanine nucleotide exchange factors (GEFs). GEFs, such as SOS1/2, activate Ras proteins by exchanging GDP for GTP, thus returning Ras to its active conformation (Simanshu, Nissley, & McCormick, 2017). […] Homogenous time resolved fluorescence (HTRF) was used to detect SOS-mediated binding of a fluorescent GTP analog, GTP-DY-647P1 (Jena Biosciences NU-820-647P1) to GST-tagged KRAS-G12D (2-169, Reaction Biology, MSC-11-539) or to GST-tagged KRAS-G12V (2-169, Reaction Biology, MSC-11-540).
GST-tagged KRAS-G12D (2-169) and anti-GST MAb Tb Cryptate Gold (CisBio 61GSTTLB) were diluted into assay buffer (20 mM HEPES, pH 7.3, 150 mM NaCl, 5 mM MgCl2, 0.05% BSA 0.0025% NP40, 1 mM DTT) to prepare a 2.5× donor solution. 5× compound was added to the protein mixture and incubated for 1 h at RT. 2.5× acceptor solution containing SOSIcat (564-1049, Reaction Biology MSC-11-502) and GTP-DY-647P1 were then added to the donor KRAS mixture such that the final concentration of the reaction contained 5 nM GST-tagged KRAS-G12D (2-169), 20 nM SOScat, and 150 nM GTP. The reaction was monitored using at RT with the Envision multimode plate reader (Ex/Em 337/665, […]) up to 90 minutes at 5 minute intervals. To monitor KRAS-G12V Sos-mediated nucleotide exchange, 80 nM SOS was added to reaction instead of 20 nM. All other components were the same as previously described. Data was blanked to reactions without SOS1 and % inhibition was calculated such that DMSO only=0% and blank=100%. Curve fitting was done using a 4 parameter fit. Reported IC50 values were extracted at 30 min and 90 min for the KRAS-G12D and KRAS-G12V assays, respectively.
Curve fitting was done using a 4 parameter fit. NEA KRAS G12D IC50 (uM) values of selected compounds are depicted in Table 2 with compounds having a value <0.01 uM as ++++; >0.01 uM to 0.1 uM as +++; >0.1 uM to 1 uM as ++; >1 uM to 20 uM as +; and >20 uM as NA.
A general note: TR-FRET usually uses a lanthanide donor and a delayed reading to cut background.

The target of the next test is T2, KRAS G12D/RAF1 (Homo sapiens, UniProt P01116, G12D).
T2 construct: His6-MBP (N, cleaved yes); made in house; host or cells: E. coli
Put plainly: Protein-protein interaction (PPI) HTRF assay KRAS G12D/RAF1. In kind it is binding. The following applies: Table 4. The procedure: Biotinylated KRAS wt and KRAS G12DNV proteins were expressed and purified in conditions similar to those previously reported (Tran, et al., 2021) (Zhang, et al., 2020). Briefly, KRAS (1-169) proteins were expressed in E. coli at 18° C. with an upstream TEV cleavage site (ENLFYQS (SEQ ID NO: 6)) followed an Avi tag sequence ([…] (SEQ ID NO: 7)). KRAS expression constructs contained both a His6 (SEQ ID NO: 8) and maltose-binding protein (MBP) tags at the N-terminus for Ni-NTA column purification prior to overnight TEV cleavage and MBP column purification. The avi-tagged NRAS expression construct contained both a His6 tag (SEQ ID NO: 8) and SUMO cleavage sige at the N-terminus for Ni-NTA column purification followed by His-ULPi digestion overnight. All avi-tagged RAS proteins were dialyzed into buffer containing ATP, biotin, and BirA followed by purification over a second Ni-NTA column and then run over a size exclusion HiLoad™ 26/600 Superdex™ column in 20 mM HEPES, pH 7.5, 300 mM NaCl, 5 mM MgCl2, and 1 mM TCEP. Fractions containing the protein of interest were pooled, concentrated, and confirmed by intact mass spectrometry. To prepare ‘GTP’ loaded KRAS and NRAS, biotinylated KRAS or NRAS was nucleotide exchanged from GDP-bound protein to GppNHp-bound (Jena Biosciences, NU-401-50) protein in the presence of alkaline phosphatase and excess GppNHp as previously described and the resulting nucleotide content was confirmed by HPLC reverse phase analytical chromatography (Donohue, et al., 2019) (Tran, et al., 2021).
His-tagged RAF1 (52-131) was similarly expressed in E. coli at 18° C. overnight with an upstream TEV cleavage site. His-tagged RAF1 expression construct contained both a His6 (SEQ ID NO: 8) and MBP tags at the N-terminus for Ni-NTA column purification followed by MBP-tagged TEV digestion overnight. RAF1 protein samples were further purified over a MBP column followed by a Ni-NTA column and a second MBP column. The fractions containing the protein of interest were pooled, concentrated, and further purified over a HiLoad™ 16/600 Superdex™ 75 pg size exclusion column into 20 mM HEPES, pH8.0, 200 mM NaCl, 5 mM TCEP.
When RAS proteins are in the active GTP-bound conformation, they bind the effector protein RAF1 at the N-terminus Ras-binding domain (RBD, residues 52-131) (Tran, et al., 2021). Homogenous time resolved fluorescence (HTRF) was used to monitor the interaction between wt or mutant KRAS and RAF1 or wt NRAS and RAFT. Compounds were assayed in the presence of KRAS G12D/V and RAF1 versus wt KRAS to assess activity against mutant and w.t. KRAS. Similarly, compounds were then assayed in the presence of w.t. NRAS and RAF1 to assess RAS isoform selectivity. In all assay formats, His-tagged RAF1 protein was incubated with the HTRF donor, anti-6His (“6His” disclosed as SEQ ID NO: 8) Tb Cryptate gold (Cisbio 61DB10RDF), and biotinylated RAS proteins were incubated with the HTRF acceptor, streptavidin-d2 (CisBio 610SADLA). The intensity of the fluorescence signal emitted is proportional to binding between the two proteins. The donor solution was prepared by mixing 16 nM His-tagged RAF1 in protein dilution buffer with 1:100 anti-6His (“6His” disclosed as SEQ ID NO: 8) Tb cryptate in PPI-Terbium detection buffer. 16 nM biotinylated RAS protein was diluted into protein dilution buffer (50 mM Tris-HCl pH 7.5, 150 mM NaCl, 0.1 mM MgCl2, 1 mM TCEP, 0.005% Tween20) and mixed with 1:2000 Streptavidin-d2 diluted in PPI-Terbium detection buffer (CisBio 61DBTORDF). 50× compound in DMSO was mixed with 16 nM KRAS-acceptor solution and incubated for 30 minutes at room temperature. After compound pre-incubation with KRAS, the RAF1 donor solution was added to the KRAS-acceptor solution and incubated for 1 hour at room temperature. The fluorescence signal emitted was monitored at 665 nm and 615 nm using an Envision multimode plate reader. […]

T1 sequence (P01116 2-169 isoform P01116-2 G12D): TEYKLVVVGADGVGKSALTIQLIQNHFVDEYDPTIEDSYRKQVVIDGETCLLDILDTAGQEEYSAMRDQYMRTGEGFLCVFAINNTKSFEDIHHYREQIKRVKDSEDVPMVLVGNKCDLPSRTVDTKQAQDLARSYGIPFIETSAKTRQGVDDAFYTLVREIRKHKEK
T2 sequence (P01116 with tags, fused parts or gaps isoform P01116-2 G12D): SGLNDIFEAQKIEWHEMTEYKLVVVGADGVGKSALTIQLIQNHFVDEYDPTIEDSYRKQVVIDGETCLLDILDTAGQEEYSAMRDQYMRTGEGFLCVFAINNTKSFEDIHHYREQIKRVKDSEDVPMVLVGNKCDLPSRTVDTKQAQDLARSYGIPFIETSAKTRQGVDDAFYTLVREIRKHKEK

As usually defined, the IC50 is the concentration at which inhibition is half-maximal. High values mean lower potency, low ones higher potency. With `N#Cc1c(N2C[C@H]3CC[C@@H](C2)N3)nc(OCC2(CN3CCOCC3)CC2)nc1N1CC2(CCc3sc4[nH]cnc(=O)c4c32)C1` [Compound 39, 2-[[1-(morpholinomethyl)cyclopropyl]methoxy]-4-(12-oxospiro[7-thia-9,11-diazatricyclo[6.4.0.02,6]dodeca-1(8), 2(6), 10-triene-3,3′-azetidine]-1′-yl)-6-[(1R,5S)-3,8-diazabicyclo[3.2.1]octan-3-yl]pyrimidine-5-carbonitrile], the IC50 in test [1] was 100 to 1000 nM; against KRAS G12D/RAF1 it was greater than 100000 nM.
For `CN(C)C(=O)c1nn2c(c1Cl)CN(c1nc(OC[C@@]34CCCN3C[C@H](F)C4)nc(N3CC4(CCc5sc6[nH]cnc(=O)c6c54)C3)c1C#N)CCC2` [Compound 44, 3-chloro-5-[5-cyano-2-[[(2R,8S)-2-fluoro-1,2,3,5,6,7-hexahydropyrrolizin-8-yl]methoxy]-6-(12-oxospiro[7-thia-9,11-diazatricyclo[6.4.0.02,6]dodeca-1(8), 2(6), 10-triene-3,3′-azetidine]-1′-yl)pyrimidin-4-yl]-N,N-dimethyl-4,6,7,8-tetrahydropyrazolo[1,5-a][1,4]diazepine-2-carboxamide] the same measures were 1000 to 20000 nM and greater than 100000 nM.
On the same counts, the results for `N#Cc1c(N2C[C@H]3CC[C@@H](C2)N3)nc(OCC2(CN3CCOCC3)CC2)nc1N1CC2(C1)C(=O)CCc1ccccc12` [Compound 50, 4-[(1R,5S)-3,8-diazabicyclo[3.2.1]octan-3-yl]-2-[[1-(morpholinomethyl)cyclopropyl]methoxy]-6-(2′-oxospiro[azetidine-3,1′-tetralin]-1-yl)pyrimidine-5-carbonitrile] are 1000 to 20000 nM and greater than 100000 nM.
Take `N#Cc1c(N)sc2c1C1(CC2)CN(c2nc(OC[C@@]34CCCN3C[C@H](F)C4)nc(N3CCCC(C#N)CC3)c2F)C1` (stereo partly drawn) [Compound 51, 2-amino-1′-[6-(4-cyanoazepan-1-yl)-5-fluoro-2-[[(2R,8S)-2-fluoro-1,2,3,5,6,7-hexahydropyrrolizin-8-yl]methoxy]pyrimidin-4-yl]spiro[5,6-dihydrocyclopenta[b]thiophene-4,3′-azetidine]-3-carbonitrile]: the IC50 was 10 to 100 nM in test [1] and 1000 to 10000 nM against KRAS G12D/RAF1.
Take `N#Cc1c(N2C[C@H]3CC[C@@H](C2)N3)nc(OCC2(CN3CCOCC3)CC2)nc1N1CC2(C1)c1ccccc1CCC2O` (stereo partly drawn) [Compound 53, 4-[(1R,5S)-3,8-diazabicyclo[3.2.1]octan-3-yl]-6-(2′-hydroxyspiro[azetidine-3,1′-tetralin]-1-yl)-2-[[1-(morpholinomethyl)cyclopropyl]methoxy]pyrimidine-5-carbonitrile]: the IC50 in test [1] is 100 to 1000 nM; at KRAS G12D/RAF1, greater than 100000 nM.
For `N#CNC1CCCN(c2nc(OC[C@@]34CCCN3C[C@H](F)C4)nc(N3CC4(CCc5sc(N)c(C#N)c54)C3)c2F)C1` (stereo partly drawn) [Compound 54, [1-[6-(2-amino-3-cyano-spiro[5,6-dihydrocyclopenta[b]thiophene-4,3′-azetidine]-1′-yl)-5-fluoro-2-[[(2R,8S)-2-fluoro-1,2,3,5,6,7-hexahydropyrrolizin-8-yl]methoxy]pyrimidin-4-yl]-3-piperidyl]cyanamide] the same measures were 100 to 1000 nM and 100 to 1000 nM.
For `N#Cc1c(N2CCn3nncc3C2)nc(OC[C@@]23CCCN2C[C@H](F)C3)nc1N1CC2(CCc3sc(N)c(C#N)c32)C1` [Compound 55, 2-amino-1′-[5-cyano-6-(6,7-dihydro-4H-triazolo[1,5-a]pyrazin-5-yl)-2-[[(2R,8S)-2-fluoro-1,2,3,5,6,7-hexahydropyrrolizin-8-yl]methoxy]pyrimidin-4-yl]spiro[5,6-dihydrocyclopenta[b]thiophene-4,3′-azetidine]-3-carbonitrile] the same measures were 100 to 1000 nM and 10000 to 100000 nM.
As to `N#Cc1c(N2C[C@H]3CC[C@@H](C2)N3)nc(OCC2(CN3CCC(F)(F)CC3)CC2)nc1N1CC2(CCCc3sc(N)c(C#N)c32)C1` [Compound 56, 2-amino-1′-[5-cyano-6-[(1R,5S)-3,8-diazabicyclo[3.2.1]octan-3-yl]-2-[[1-[(4,4-difluoro-1-piperidyl)methyl]cyclopropyl]methoxy]pyrimidin-4-yl]spiro[6,7-dihydro-5H-benzothiophene-4,3′-azetidine]-3-carbonitrile], the results for the IC50 (in test [1]; against KRAS G12D/RAF1) were less than 10 nM and 100 to 1000 nM, respectively.
For `CN1CCc2c(cccc2Oc2nc(N3C[C@H]4CC[C@@H](C3)N4)c(C#N)c(N3CC4(CCc5sc(N)c(C#N)c54)C3)n2)C1` [Compound 57, 2-amino-1′-[5-cyano-2-[(2-methyl-3,4-dihydro-1H-isoquinolin-5-yl)oxy]-6-[(1R,5S)-3,8-diazabicyclo[3.2.1]octan-3-yl]pyrimidin-4-yl]spiro[5,6-dihydrocyclopenta[b]thiophene-4,3′-azetidine]-3-carbonitrile] the same measures were 1000 to 20000 nM and 10000 to 100000 nM.
Take `N#Cc1c(N2C[C@H]3CC[C@@H](C2)N3)nc(OCC2(CN3CCC(F)(F)C3)CC2)nc1N1CC2(CCc3sc(N)c(C#N)c32)C1` [Compound 58, 2-amino-1′-[5-cyano-6-[(1R,5S)-3,8-diazabicyclo[3.2.1]octan-3-yl]-2-[[1-[(3,3-difluoropyrrolidin-1-yl)methyl]cyclopropyl]methoxy]pyrimidin-4-yl]spiro[5,6-dihydrocyclopenta[b]thiophene-4,3′-azetidine]-3-carbonitrile]: the 50% inhibitory concentration (IC50) in test [1] was less than 10 nM; against KRAS G12D/RAF1 it was 1000 to 10000 nM.

The values are drawn from patent US12145947B2, “Pyrimidine based modulators and uses thereof” (Quanta Therapeutics, Inc., priority 2022, dated 2024).
